Laboratory results as given in publication PMC9412374, “Design, Synthesis, and Development of pyrazolo[1,5-a]pyrimidine Derivatives as a Novel Series of Selective PI3Kδ Inhibitors: Part I—Indole Derivatives” (Pharmaceuticals, 2022).
Values after ≈ are worked out from the molar mass of the structure shown. Where two headings read alike, the source gives them in different places.

How the values were obtained:
[1] = Metabolic phase I stability in human microsomes; format: in vitro ADME; conditions: human microsomes 0.5 mg/mL, NADPH, 37 °C; for half-life at 1 μM: read-out: HLM t1/2
Procedure: (§1) Assessment of metabolic phase I stability in mouse (CD-1™) and human microsomes (Thermo-Fisher Scientific, Waltham, MA, USA) was performed on 96-well non-binding plates (Greiner, Frickenhausen, Germany) at 1 μM concentration for verapamil (positive control) and donepezil (negative control) and tested compounds. Unless otherwise stated, all chemicals and materials were ordered from Merck Life Science (Palo Alto, CA, USA). Each biological replicate was prepared in triplicates. Briefly, mixtures were incubated in 100 mM potassium phosphate buffer with microsomes (0.5 mg/mL) and NADPH (1–1.2 mM) on a plate shaker (500 rpm) in the dark at 37 °C. A 4× solution of NADPH, a cofactor for metabolic enzymes, was prepared directly prior to the experiment by reducing NADP with G6P dehydrogenase (13.2 mM MgCl2, 13.2 mM G6P, 5.2 mM NADP, 3.2 U/mL G6P dehydrogenase, 20 min at 30 °C, 500 rpm). The negative control contained buffer instead of NADPH solution. Samples were collected at 0, 10, 20, and 40 min or 0 and 40 min for the negative and double negative controls. The reaction was stopped by protein precipitation in 2 volumes of ice-cold MeOH with 200 nM imipramine (an internal standard for LC-MS analysis). Then, the extract was mixed (1 min, 1000 rpm), filtered through a 0.22 μm filter on a 96-well plate vacuum manifold, and subjected to LC-MS analysis.

PI3Kα = target: T1, PI3Kα (Homo sapiens, UniProt P42336); assay: In vitro kinase inhibition assay for PI3K (ADP-Glo), PI3Kα; format: biochemical; conditions: for IC50: IC50 PI3K α, recombinant kinase, ADP-Glo, mean of two independent experiments; for Fold Selectivity α/δ: ratio of IC50 PI3Kα to IC50 PI3Kδ
T1 construct: purchased Carna Biosciences
T1 sequence (P42336 whole entry): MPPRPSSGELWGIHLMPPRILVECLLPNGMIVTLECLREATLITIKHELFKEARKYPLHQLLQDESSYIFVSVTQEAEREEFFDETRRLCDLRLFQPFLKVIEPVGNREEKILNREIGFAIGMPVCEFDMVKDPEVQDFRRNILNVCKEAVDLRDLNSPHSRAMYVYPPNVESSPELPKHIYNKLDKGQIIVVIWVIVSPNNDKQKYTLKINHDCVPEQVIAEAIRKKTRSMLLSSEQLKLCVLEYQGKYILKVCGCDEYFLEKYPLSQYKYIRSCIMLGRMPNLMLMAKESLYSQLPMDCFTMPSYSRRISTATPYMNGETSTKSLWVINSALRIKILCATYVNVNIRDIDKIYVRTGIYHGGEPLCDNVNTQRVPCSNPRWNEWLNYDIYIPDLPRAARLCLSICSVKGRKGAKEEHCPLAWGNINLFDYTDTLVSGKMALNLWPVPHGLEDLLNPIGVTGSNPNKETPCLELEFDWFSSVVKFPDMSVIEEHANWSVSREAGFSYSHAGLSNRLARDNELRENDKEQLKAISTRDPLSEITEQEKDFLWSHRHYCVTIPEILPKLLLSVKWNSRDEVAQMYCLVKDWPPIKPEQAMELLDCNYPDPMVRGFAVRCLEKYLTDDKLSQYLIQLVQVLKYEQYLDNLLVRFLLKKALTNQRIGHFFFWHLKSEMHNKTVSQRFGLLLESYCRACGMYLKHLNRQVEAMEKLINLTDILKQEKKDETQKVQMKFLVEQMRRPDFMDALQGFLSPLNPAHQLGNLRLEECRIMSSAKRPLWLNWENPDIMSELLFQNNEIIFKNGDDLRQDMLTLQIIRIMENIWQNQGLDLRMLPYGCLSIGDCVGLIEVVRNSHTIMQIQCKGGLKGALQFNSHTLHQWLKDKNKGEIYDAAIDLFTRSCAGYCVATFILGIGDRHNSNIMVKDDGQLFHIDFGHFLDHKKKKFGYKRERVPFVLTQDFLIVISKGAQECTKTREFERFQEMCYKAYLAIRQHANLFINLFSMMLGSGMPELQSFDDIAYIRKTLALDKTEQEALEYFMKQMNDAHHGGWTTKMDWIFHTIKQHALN
T1 sequence (P27986 whole entry partner): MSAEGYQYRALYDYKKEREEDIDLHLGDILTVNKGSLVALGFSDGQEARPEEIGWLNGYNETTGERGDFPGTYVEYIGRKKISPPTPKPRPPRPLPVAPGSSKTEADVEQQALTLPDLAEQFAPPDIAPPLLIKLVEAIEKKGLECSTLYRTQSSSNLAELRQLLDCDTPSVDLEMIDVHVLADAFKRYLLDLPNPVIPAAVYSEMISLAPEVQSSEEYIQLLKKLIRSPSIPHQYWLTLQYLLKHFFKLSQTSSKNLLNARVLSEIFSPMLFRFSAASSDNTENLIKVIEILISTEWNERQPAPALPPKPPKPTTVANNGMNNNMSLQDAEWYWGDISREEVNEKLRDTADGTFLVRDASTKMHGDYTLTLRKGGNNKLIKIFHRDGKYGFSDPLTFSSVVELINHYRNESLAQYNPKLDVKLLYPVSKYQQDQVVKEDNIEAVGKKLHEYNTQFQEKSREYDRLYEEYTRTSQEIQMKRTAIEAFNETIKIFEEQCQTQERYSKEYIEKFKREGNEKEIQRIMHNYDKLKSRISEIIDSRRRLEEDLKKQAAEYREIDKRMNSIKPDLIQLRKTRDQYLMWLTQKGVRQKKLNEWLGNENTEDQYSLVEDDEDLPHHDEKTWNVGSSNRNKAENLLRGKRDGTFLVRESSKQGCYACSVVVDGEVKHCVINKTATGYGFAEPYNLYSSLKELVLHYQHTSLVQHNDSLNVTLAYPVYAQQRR
Procedure: (§2) Tested compounds were dissolved in 100% DMSO, and obtained solutions were serially diluted in 1× reaction buffer. The recombinant kinase solution was diluted in a reaction mixture comprising 5× reaction buffer, respective compound solution (1 mM sodium diacetate 4,5-bisphosphate phosphatidylinositol (PIP2) solution in 40 mM Tris buffer), and water. In a 96-wells plate, 5 μL of compound solutions and 15 μL of the kinase solution in the reaction mixture were added per well. To initiate the interaction of chemical compounds to be tested with the enzyme, the plate was incubated for 10 min at a suitable temperature in a plate thermostat with orbital shaking at 600 rpm. Negative control wells contained all the above reagents except tested compound and kinase, and positive control wells contained all the above reagents except tested compounds. The enzymatic reaction was initiated by adding 5 μL of 150 μM ATP solution. Subsequently, the plate was incubated for 1 h at 25 or 30 °C (depending on the PI3K isoform tested) in a plate thermostat with orbital shaking of the plate contents at 600 rpm. The reaction conditions are combined in the table below (Table 6).
(§3) Detection of ADP formed in the enzymatic reaction was then performed using ADP-Glo Kinase Assay™ (Promega, Madison, WI, USA). To the wells of a 96-well plate, 25 μL of ADP-Glo Reagent™ was added, and the plate was incubated for 40 min at 25 °C in a plate thermostat with orbital shaking at 600 rpm. Then 50 μL of Kinase Detection Reagent were added to each well, and the plate was incubated for 40 min at 25 °C in a plate thermostat with orbital shaking at 600 rpm. Once the incubation was complete, the luminescence intensity was measured using a Victor Light luminometer (Perkin Elmer, Inc., Waltham, MA, USA). IC50 values were determined based on luminescence intensity measured in wells containing tested compounds at different concentrations in relation to control wells. These values were calculated with Graph Pad 5.03 software by fitting the curve using non-linear regression. Each compound was tested at least in quadruplicates (4 wells) on two 96-well plates utilizing at least 4 wells for each control. Averaged results of inhibition activity respective to specific isoforms of PI3K kinases for tested compounds are presented as IC50 values in Table 1, Table 2, Table 3 and Table 4.

PI3Kδ = target: T2, PI3Kδ (Homo sapiens, UniProt O00329); assay: In vitro kinase inhibition assay for PI3K (ADP-Glo), PI3Kδ; format: biochemical; conditions: recombinant kinase, mean of two independent experiments
T2 construct: purchased Merck Millipore
T2 sequence (P27986 whole entry): as the sequence (P27986 whole entry partner) above
T2 sequence (O00329 whole entry): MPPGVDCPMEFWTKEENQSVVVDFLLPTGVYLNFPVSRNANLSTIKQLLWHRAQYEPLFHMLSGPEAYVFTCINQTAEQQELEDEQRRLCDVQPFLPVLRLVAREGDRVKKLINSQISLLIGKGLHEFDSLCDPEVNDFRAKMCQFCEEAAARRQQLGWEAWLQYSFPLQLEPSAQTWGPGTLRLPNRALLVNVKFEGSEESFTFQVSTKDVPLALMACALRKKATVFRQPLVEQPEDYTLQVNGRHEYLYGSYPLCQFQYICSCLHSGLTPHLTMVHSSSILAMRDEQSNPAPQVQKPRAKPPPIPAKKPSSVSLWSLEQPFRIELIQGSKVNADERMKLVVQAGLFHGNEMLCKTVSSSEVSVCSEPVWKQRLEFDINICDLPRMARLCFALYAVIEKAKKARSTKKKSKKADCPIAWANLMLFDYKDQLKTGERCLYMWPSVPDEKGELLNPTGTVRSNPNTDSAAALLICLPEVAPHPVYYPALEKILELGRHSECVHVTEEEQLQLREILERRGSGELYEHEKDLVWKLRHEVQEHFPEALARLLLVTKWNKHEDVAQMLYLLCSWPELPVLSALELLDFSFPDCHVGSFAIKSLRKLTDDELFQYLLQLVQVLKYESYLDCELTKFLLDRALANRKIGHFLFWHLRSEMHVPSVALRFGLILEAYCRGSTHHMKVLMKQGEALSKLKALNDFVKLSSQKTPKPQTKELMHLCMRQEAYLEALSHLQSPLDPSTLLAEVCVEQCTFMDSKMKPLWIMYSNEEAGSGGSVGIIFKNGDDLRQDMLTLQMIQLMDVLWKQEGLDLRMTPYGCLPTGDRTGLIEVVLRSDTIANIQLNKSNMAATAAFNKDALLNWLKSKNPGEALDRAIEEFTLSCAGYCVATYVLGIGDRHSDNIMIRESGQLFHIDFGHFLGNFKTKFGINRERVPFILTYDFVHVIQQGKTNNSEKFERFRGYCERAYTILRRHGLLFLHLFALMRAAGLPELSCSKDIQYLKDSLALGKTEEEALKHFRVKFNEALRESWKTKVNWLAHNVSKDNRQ
Procedure: as §2, with “The enzymatic reaction was initiated by adding 5 μL of 150 μM ATP solution.” left out
as §3, with “These values were calculated with Graph Pad 5.03 software by fitting the curve using non-linear regression.” left out, “control.” for “control. Averaged results of inhibition activity respective to specific isoforms of PI3K kinases for tested compounds are presented as IC50 values in Table 1, Table 2, Table 3 and Table 4.”

CD19 cells = assay: B cells proliferation by flow cytometry (CFSE); format: cell-based; conditions: B-cell, 96 h, CD19 cells from PBMC, activated by αIgM and ODN2006, four days
Procedure: CD19 cells were isolated from PBMC using magnetic beads (Stem Cell, Cambridge, MA, USA) and then labeled with 2 µM CFSE (Invitrogen, Waltham, MA, USA).
After four days, cells were stained with LIVE/DEAD™ kit (Invitrogen, Waltham, MA, USA). Samples were acquired using Attune NxT Flow Cytometer (Invitrogen, Waltham, MA, USA) and analyzed using FlowJo software. Each biological assay was performed with cells isolated from a different donor. The presented results constitute the average value of the percentage of proliferating cells from 3 independent experiments.

PI3Kβ = target: T3, PI3Kβ (Homo sapiens, UniProt P42338); assay: In vitro kinase inhibition assay for PI3K (ADP-Glo), PI3Kβ; format: biochemical; conditions: for Fold Selectivity β/δ: ratio of IC50 PI3Kβ to IC50 PI3Kδ
T3 construct: purchased Merck Millipore
T3 sequence (P42338 whole entry): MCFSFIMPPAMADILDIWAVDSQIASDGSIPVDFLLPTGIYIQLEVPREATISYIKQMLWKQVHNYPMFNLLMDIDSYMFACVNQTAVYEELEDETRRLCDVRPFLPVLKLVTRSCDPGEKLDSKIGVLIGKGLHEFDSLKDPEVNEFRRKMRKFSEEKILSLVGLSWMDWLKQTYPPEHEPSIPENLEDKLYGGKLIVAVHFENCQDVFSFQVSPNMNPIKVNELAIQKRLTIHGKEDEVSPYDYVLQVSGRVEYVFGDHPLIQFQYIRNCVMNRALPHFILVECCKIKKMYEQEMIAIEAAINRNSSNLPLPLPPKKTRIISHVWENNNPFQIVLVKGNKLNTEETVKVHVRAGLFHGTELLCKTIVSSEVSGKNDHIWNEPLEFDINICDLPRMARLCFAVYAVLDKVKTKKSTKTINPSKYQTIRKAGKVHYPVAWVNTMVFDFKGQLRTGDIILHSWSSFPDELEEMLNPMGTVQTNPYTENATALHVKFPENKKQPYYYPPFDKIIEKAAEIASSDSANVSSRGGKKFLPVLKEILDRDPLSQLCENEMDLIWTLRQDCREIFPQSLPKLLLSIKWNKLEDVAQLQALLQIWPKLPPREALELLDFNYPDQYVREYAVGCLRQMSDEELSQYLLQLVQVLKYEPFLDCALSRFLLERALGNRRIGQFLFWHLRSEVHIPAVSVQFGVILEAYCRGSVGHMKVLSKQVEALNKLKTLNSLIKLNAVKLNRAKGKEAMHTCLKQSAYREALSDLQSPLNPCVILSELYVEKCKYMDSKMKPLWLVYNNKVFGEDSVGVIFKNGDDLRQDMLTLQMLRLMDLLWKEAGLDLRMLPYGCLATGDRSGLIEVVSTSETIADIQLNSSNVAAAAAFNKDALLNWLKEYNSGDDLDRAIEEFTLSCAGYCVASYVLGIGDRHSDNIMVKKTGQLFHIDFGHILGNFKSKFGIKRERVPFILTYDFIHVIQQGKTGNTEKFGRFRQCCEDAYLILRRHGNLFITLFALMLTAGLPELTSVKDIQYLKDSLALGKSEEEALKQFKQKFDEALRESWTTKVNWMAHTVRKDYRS
T3 sequence (P27986 whole entry, further chain): as the sequence (P27986 whole entry partner) above
Procedure: as §2, with “The enzymatic reaction was initiated by adding 5 μL of 150 μM ATP solution.” left out
as §3, with “These values were calculated with Graph Pad 5.03 software by fitting the curve using non-linear regression.” left out, “control.” for “control. Averaged results of inhibition activity respective to specific isoforms of PI3K kinases for tested compounds are presented as IC50 values in Table 1, Table 2, Table 3 and Table 4.”

[2] = Kinetic solubility, shake-flask protocol; format: physicochemical; conditions: aqueous buffer, kinetic from dmso stock, pH 7.4 phosphate-buffered saline, 25 °C, 500 µM compound
Procedure: Kinetic solubility was determined by the shake-flask protocol. Appropriate compounds (500 µM) were incubated in an aqueous buffer (0.1 M phosphate-buffered saline pH 7.4) at 25 °C with stirring at 500 rpm. The samples were taken at the start time and after 24 h of incubation, filtered through 0.22 µm filters, and diluted with two volumes of acetonitrile. UHPLC-UV/Vis determined sample concentrations. A calibration curve was prepared to quality the compound’s contents in the test solution.

PI3Kγ = target: T4, PI3Kγ (Homo sapiens, UniProt P48736); assay: In vitro kinase inhibition assay for PI3K (ADP-Glo), PI3Kγ; format: biochemical; conditions: for Fold Selectivity γ/δ: ratio of IC50 PI3Kγ to IC50 PI3Kδ
T4 construct: purchased Merck Millipore
T4 sequence (P48736 whole entry): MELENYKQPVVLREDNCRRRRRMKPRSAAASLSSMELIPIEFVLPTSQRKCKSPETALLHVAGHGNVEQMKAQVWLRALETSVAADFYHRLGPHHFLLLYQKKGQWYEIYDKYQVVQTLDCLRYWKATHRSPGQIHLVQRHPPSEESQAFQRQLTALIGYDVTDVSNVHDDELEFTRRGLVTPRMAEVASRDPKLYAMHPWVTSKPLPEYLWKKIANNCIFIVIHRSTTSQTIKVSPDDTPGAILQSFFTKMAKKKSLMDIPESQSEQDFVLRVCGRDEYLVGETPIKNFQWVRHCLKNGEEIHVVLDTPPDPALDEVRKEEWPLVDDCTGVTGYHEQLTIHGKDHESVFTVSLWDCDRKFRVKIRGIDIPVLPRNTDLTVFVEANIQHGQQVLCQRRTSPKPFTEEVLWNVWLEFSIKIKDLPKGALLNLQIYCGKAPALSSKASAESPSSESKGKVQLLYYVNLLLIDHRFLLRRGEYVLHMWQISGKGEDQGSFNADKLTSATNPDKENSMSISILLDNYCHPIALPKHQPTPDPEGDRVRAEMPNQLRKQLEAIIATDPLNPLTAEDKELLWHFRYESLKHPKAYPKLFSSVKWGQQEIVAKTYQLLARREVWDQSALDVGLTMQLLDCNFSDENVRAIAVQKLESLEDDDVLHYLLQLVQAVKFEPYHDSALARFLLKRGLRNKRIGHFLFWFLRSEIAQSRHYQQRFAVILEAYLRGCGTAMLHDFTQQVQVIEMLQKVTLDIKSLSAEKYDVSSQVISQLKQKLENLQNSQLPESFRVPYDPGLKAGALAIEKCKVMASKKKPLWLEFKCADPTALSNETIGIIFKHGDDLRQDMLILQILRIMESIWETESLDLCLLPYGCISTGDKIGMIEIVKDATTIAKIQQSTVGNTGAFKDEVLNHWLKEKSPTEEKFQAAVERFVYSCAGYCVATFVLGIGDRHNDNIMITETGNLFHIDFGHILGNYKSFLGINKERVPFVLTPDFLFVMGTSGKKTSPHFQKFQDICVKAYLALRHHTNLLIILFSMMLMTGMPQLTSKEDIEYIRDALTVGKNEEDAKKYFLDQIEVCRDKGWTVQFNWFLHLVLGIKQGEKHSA
Procedure: as §2, with “The enzymatic reaction was initiated by adding 5 μL of 150 μM ATP solution.” left out
as §3, with “These values were calculated with Graph Pad 5.03 software by fitting the curve using non-linear regression.” left out, “control.” for “control. Averaged results of inhibition activity respective to specific isoforms of PI3K kinases for tested compounds are presented as IC50 values in Table 1, Table 2, Table 3 and Table 4.”

[3] = Metabolic phase I stability in mouse microsomes; format: in vitro ADME; conditions: NADPH, 37 °C; for microsomal CLint at 1 μM: heading: MLM Cl; for half-life at 1 μM: read-out: MLM t1/2
Procedure: as §1

[4] = CD-1, liver microsomes, mouse microsomes 0.5 mg/mL

| Structure (SMILES) | microsomal CLint at 1 μM ([1]; liver microsomes, heading: HLM Cl) | half-life at 1 μM ([1]; liver microsomes) | IC50 (PI3Kα) | Fold Selectivity α/δ (PI3Kα) | IC50 (PI3Kδ; read-out: IC50 PI3K δ) | IC50 (CD19 cells) | Fold Selectivity β/δ (PI3Kβ) | IC50 (PI3Kβ; recombinant kinase, ADP-Glo, mean of two independent experiments, read-out: IC50 PI3K β) | solubility kinetic at 24 h [2] | Fold Selectivity γ/δ (PI3Kγ) | IC50 (PI3Kγ; recombinant kinase, ADP-Glo, mean of two independent experiments, read-out: IC50 PI3K γ) | microsomal CLint at 1 μM [3, 4] | half-life at 1 μM [3, 4] | half-life at 1 μM [1] | IC50 (PI3Kδ; IC50 PI3K δ) | IC50 (PI3Kβ) | IC50 (PI3Kγ) | microsomal CLint at 1 μM ([3]; CD-1, microsomes, mouse microsomes 0.5 mg/mL) | half-life at 1 μM ([3]; CD-1, mouse microsomes 0.5 mg/mL) |
| --- | --- | --- | --- | --- | --- | --- | --- | --- | --- | --- | --- | --- | --- | --- | --- | --- | --- | --- | --- |
| CC(C)(C)N1CCN(Cc2cc3nc(-c4cccc5[nH]ccc45)cc(N4CCOCC4)n3n2)CC1 [Compound 37, 2-((4-tert-butylpiperazin-1-yl)methyl)-5-(1H-indol-4-yl)-7-(morpholin-4-yl)pyrazolo[1,5-a]pyrimidine] | 22.8 µL/min/mg | 1.27 h | 12500 nM | 1889 | 6.6 nM | 20 nM | 829 | 5470 nM | 444 µM (≈ 210 µg/mL) | >9091 | > 60000 nM | 13.7 µL/min/mg | 2.1 h |  |  |  |  |  |  |
| CC(C)(C)N1CCN(Cc2cc3nc(-c4cncc5[nH]ccc45)cc(N4CCOCC4)n3n2)CC1 [Compound 54, 2-((4-tert-butylpiperazin-1-yl)methyl)-5-(1H-pyrrolo [2,3-c]pyridin-4-yl)-7-(morpholin-4-yl)pyrazolo[1,5-a]pyrimidine] |  |  | 2670 nM | 954 |  | 19 nM | 7714 |  | > 500 µM | 12,286 |  |  |  | 6.17 h | 2.8 nM | 21600 nM | 34400 nM | 7 µL/min/mg | 3.3 h |
